One experiment relates to S. lividans. Kind of experiment: Calicheamicin resistance on transgenic expression of calC in S. lividans. Type of experiment: cell-based. The text has this: (§1) DNA containing calC was cloned into an inducible vector, using known methods, resulting in overexpression of calC. The polypeptide product (CalC) was then isolated and purified to homogeneity. […] Another aspect of the invention is an expression vector containing calC or a fragment of calC coding for a bioactive molecule. There is also provided a transformed host cell, preferably bacteria, more preferably E. coli, containing calC or a fragment of calC coding for a bioactive molecule. Such transgenic expression of calC results in an 10^5-fold increase in calicheamicin resistance in E. coli, a 100-fold increase in resistance in S. lividans, and a 50-fold increase in resistance in yeast.

The test system of the next experiment is HT1080 (human) cell line. As to the kind of experiment: Calicheamicin resistance on transgenic expression of calC in HT1080 cell line. Type of experiment: cell-based. From the text:
The present invention provides for the transformation of human cells with the calC gene. The transgenic expression of calC in the HT1080 (human) cell line increased its resistance to calicheamicin 10-fold. This technique allows bone marrow cells, for example, to be removed from a patient being treated with calicheamicin, and for these cells to be transformed with calC, and for the transformed cells to be returned to the patient. This allows the patient to tolerate treatment with calicheamicin or allows the patient to receive higher doses of calicheamicin as the returned human-calC-transformed cells have calicheamicin resistance. The transformation is performed by methods known in the art. The embodiment of the invention would be applicable to many diseases being treated with calicheamicin.

Experiment [1] deals with break light B (BamHI recognition sequence 5′-GGATCC-3′). Kind of experiment: Molecular break light assay, break light B. Type of experiment: biochemical. From the text: (§2) The invention further provides for a method of assaying the calicheamicin-induced DNA cleavage and its CalC-mediated inhibition using the molecular break light assay. Two molecular break lights (MLBs) for the experiments are described in example 7. Break light A is comprised of a 10-base pair stem which contained the known calicheamicin recognition sequence 5′-TCCT-3′, while break light B carries the BamHI endonuclease recognition sequence 5′-GGATCC-3′. The 5′-fluorophore of both probes was fluorescein (FAM, absorbancemax=485 nm, emissionmax=517 nm) while the corresponding 3′-quencher was 4-(4′-dimethylaminophenylazo)benzoic acid (DABCYL). Generally, MLBs operate by a separation of the fluorophore-quencher pair resulting a corresponding fluorescent signal.
The invention further provides for a method of assaying the calicheamicin-induced DNA cleavage and its CalC mediated inhibition using the molecular break light assay. Break light A was comprised of a 10-base pair stem which contained the known calicheamicin recognition sequence 5′-TCCT-3′, while break light B carried the BamHI endonuclease recognition sequence 5′-GGATCC-3′. […] The loop of both probes consisted of a T4 loop to ensure non-hybridizing interactions. The 5′-fluorophore of both probes was fluorescein (FAM, absorbancemax=485 nm, emissionmax=517 nm) while the corresponding 3′-quencher was 4-(4′-dimethylaminophenylazo)benzoic acid (DABCYL). […]
Enzymalic Cleavage as Proof of Principle. […] In comparison, control samples containing break lights alone or break lights in the presence of BSA gave no change in fluorescence over >2 hr at 37° C. Given the lack of fluorescence in the absence of enzyme, the designed break lights show no appreciable melting at the designated assay temperature.
Consistent with this finding, PAGE analysis of the reaction products confirmed the presence of a […] after excess treatment with BamHI which is completely degraded upon DNaseI digestion. As a result, the fluorescence maxium observed with excess BamHI was designated 100% cleavage for the BamHI kinetic studies described below. […]

Experiment [2] deals with break light A (calicheamicin recognition sequence 5′-TCCT-3′). Kind of experiment: Molecular break light assay, break light A. Type of experiment: biochemical. Particulars: for Maximum fluorescence obtained upon cleavage of break light A: excess DTT.
Excerpt: as §2
The invention further provides for a method of assaying the calicheamicin-induced DNA cleavage and its CalC mediated inhibition using the molecular break light assay. Break light A was comprised of a 10-base pair stem which contained the known calicheamicin recognition sequence 5′-TCCT-3′, while break light B carried the BamHI endonuclease recognition sequence 5′-GGATCC-3′. […] The loop of both probes consisted of a T4 loop to ensure non-hybridizing interactions. The 5′-fluorophore of both probes was fluorescein (FAM, absorbancemax=485 nm, emissionmax=517 nm) while the corresponding 3′-quencher was 4-(4′-dimethylaminophenylazo)benzoic acid (DABCYL). Previous studies have shown DABCYL to serve as a universal quencher in molecular beacons and there is significant spectral overlap (1.02×10^−15 M^−1 cm^3) between the emission spectrum of FAM and the absorption spectrum of DABCYL.
Enzymalic Cleavage as Proof of Principle. […] Specifically, only break light B should cleave in the presence of the restriction endonuclease BamHI while both A and B should be digested by the non-specific nuclease DNaseI. […] In comparison, control samples containing break lights alone or break lights in the presence of BSA gave no change in fluorescence over >2 hr at 37° C. Given the lack of fluorescence in the absence of enzyme, the designed break lights show no appreciable melting at the designated assay temperature.
Enediyne-Catalyzed Cleavage. Previous assays for enediyne cleavage of DNA relied upon discontinuous assays using radioactive DNA probes, electrophoresis and subsequent phosphoimager analysis. In contrast, by using break lights one can directly follow the extent of DNA cleavage by a specific enediyne in real time with high sensitivity. […] Under the conditions described, this assay allows the detection of 1 in the pM range. This sensitivity compares to that of the biochemical induction assay (BIA), the method of choice in detecting DNA-damaging agents. […] This supports the view that the specificity of 1 is more dependent upon context and perhaps less so on DNA sequence. It should also be noted that 1 leads to predominately double-stranded cleavage while 2 provides single-stranded nicks and the current molecular break light assay can not distinguish these two phenomena.
CalC inhibits calicheamicin mediated DNA cleavage. […] 3.6 pM break light A is coincubated with 3.5 nM calicheamicin with increasing amounts of CalC (0.0 nm, 1.3 nm, 2.6 nm, 3.9 nm, 5.2 nm). Complete inhibition of calicheamicin is achieved with roughly 2-fold excess of CalC. CalC has no effect on esperamicin-induced cleavage of DNA (data not shown).

Another experiment has as its system CalC. As to the kind of experiment: Interaction of calicheamicin with CalC measured by CalC tryptophan fluorescence. Type of experiment: binding, Micromonospora echinospora. From the text: CalC has 5 tryptophan and no cysteine residues and is unaffected by the reductive activator dithiothreitol (DTT). As the concentration of calicheamicin (3) increases in the absence of DTT there is little change in the CalC Trp fluorescence intensity.

The subject of experiment [3] is E. coli. As to the kind of experiment: Growth of cosmid/plasmid-carrying clones on LB plates containing calicheamicin (maximum tolerated concentration). Type of experiment: cell-based. Particulars: for Maximum tolerated concentration of calicheamicin: LB plates. On the procedure:
To isolate the gene(s) responsible for calicheamicin resistance in Micromonospora, clones conferring calicheamicin resistance were selected by growth of a Micromonospora genomic bifunctional cosmid library on LB plates containing ampicillin (50 μg ml^−1) and calicheamicin (0.25 μg ml^−1). […] Restriction mapping of these clones localized the desired phenotype to a ˜2kb PstI-SacI fragment of DNA. (FIG. 2). Maximum tolerated concentrations of calicheamicin on the LB plates was ascertained. The results are as follows:
The proximal 1 kb of this fragment carried the single orf calD while the distal 1 kb presented orf calC. […] Therefore, it was hypothesized that calD was not responsible for calicheamicin resistance. To rule out calD as being responsible for calicheamicin resistance, a subclone was engineered (pJT1224) to contain an intact calD, but the truncated calC gene. This subclone was not able to confer resistance to calicheamicin. Next, a subclone containing the calC region was constructed (pJT1232). This clone conferred calicheamicin resistance, as indicated in the above chart.
To ascertain the amino acid sequence of CalC and learn its properties, calC was cloned into a pMAL-C2 vector. (pMAL-C2 by itself could not confer calicheamicin resistance. See above chart.) The resulting plasmid, pRE7, which contained calC, conferred resistance to calicheamicin. See above chart. Plasmid pRE7 was then induced with isopropyl Beta-D-thiogalactoside (“IPTG”) to overexpress CalC. Induced pRE7 conferred resistance to calicheamicin and produced a maltose-binding protein CalC fusion protein (mbp-CalC). This resulting overexpression of CalC increased calicheamicin resistance 10^2-fold in vivo. See above chart.

For experiment [4], the system named is supercoiled pBlusecript plasmid DNA. As to the kind of experiment: In vitro calicheamicin-induced DNA cleavage assay (agarose gel). Type of experiment: biochemical. Here is the method: To test this theory, preliminary assays were performed with supercoiled pBlusecript plasmid DNA (“pBS”) as the template, and dithiothreitol (“DTT”) as the reductive initiator. In a typical assay, purified mbp-CalC (15.0 nM) and 30.0 nM calicheamicin were preincubated for 15 min. in a total volume of 25 μL 40 mM Tris-Cl, pH 7.5, at 37° C. Then 2.5 μL 10 mM DTT stock solution was added to the assay solution, and the assay was incubated an additional 1 hour at 37° C. DNA fragmentation was assessed by electrophoresis on a 1% agarose gel stained with ethidium bromide.
Reconstitution of apo-mbp-CalC was accomplished by preincubation with 1 mM FeSO4 (Fe^+2) or FeCl3 (Fe^+3) prior to the activity assay as previously described.

For experiment [5], the system named is E. coli. As to the kind of experiment: Calicheamicin resistance on transgenic expression of calC in E. coli. Type of experiment: cell-based.
Excerpt: as §1

The next experiment relates to yeast. As to the kind of experiment: Calicheamicin resistance on transgenic expression of calC in yeast. Type of experiment: cell-based.
Excerpt: as §1

Data on four molecules can be found in US6733998B1, “Micromonospora echinospora genes coding for biosynthesis of calicheamicin and self-resistance thereto” (priority 1998, dated 2004).

Where only a bound is given, the exact number is not on record here.

Take calicheamicin: the “Increase in calicheamicin resistance on transgenic expression of calC” value in the experiment with S. lividans is listed as 100 fold; in the experiment with E. coli [5], 10^5 fold; in the experiment on yeast, 50 fold. Besides, the “Increase in resistance to calicheamicin on transgenic expression of calC” value in the experiment on HT1080 (human) cell line is 10 fold. The “Rate of cleavage of molecular break light B compared with break light A” value in [1] was “identical rate”. Moreover, in [2] (3.2 nM break light A, 37° C.), the “Maximum fluorescence obtained upon cleavage of break light A” value is reported as “identical to that observed with DNaseI”. Moreover, in the experiment with CalC (addition of DTT to activate calicheamicin), the “Binding to CalC (CalC Trp fluorescence intensity)” value is listed as “increased binding”. In the experiment with CalC (increasing calicheamicin concentration, absence of DTT), the “Change in CalC Trp fluorescence intensity” value is recorded as “little change”. The “Maximum tolerated concentration of calicheamicin” value in the experiment on E. coli [3] (cosmids 3a, 4a, 10a, 13a, and 16a) is 0.5 µg/mL; in the experiment with E. coli [3] (induced pRE7 (IPTG)), 50.0 µg/mL; in the experiment on E. coli [3] (pJT1214 and pJT1232), 5.0 µg/mL; with E. coli [3] (pJT1224, pAP6, Pre1, and control plasmids pUC18, pBluescript, and pMAL-C2), less than 0.01 µg/mL; with E. coli [3] (pRE7 (calC in pMAL-C2)) it was 20.0 µg/mL. Also, in the experiment on E. coli [3] (induced pRE7, in vivo), the “Increase in calicheamicin resistance on overexpression of CalC” value is 10^2 fold. In addition, the DNA cleavage result in experiment [4] (in the absence of DTT) was “no DNA cleavage”; in experiment [4] (in the presence of DTT and calicheamicin), “efficient cleavage”.

As for esperamicin, in [2] (3.2 nM break light A, 37° C.), the “Maximum fluorescence obtained upon cleavage of break light A” value was “identical to that observed with DNaseI”.

B1: BamHI: restriction endonuclease (protein, UniProt P23940 1-213, looked up)
Type II restriction enzyme …: MEVEKEFITDEAKELLSKDKLIQQAYNEVKTSICSPIWPATSKTFTINNTEKNCNGVVPIKELCYTLLEDTYNWYREKPLDILKLEKKKGGPIDVYKEFIENSELKRVGMEFETGNISSAHRSMNKLLLGLKHGEIDLAIILMPIKQLAYYLTDRVTNFEELEPYFELTEGQPFIFIGFNAEAYNSNVPLIPKGSDGMSKRSIKKWKDKVENK
As to B1, the “Change of fluorescence over time” value is recorded as “increase of fluorescence” in experiment [1] (3.2 nM break light B, 37° C.) and “no change” in experiment [2] (3.2 nM break light A, 37° C.). Besides, in [1] (same concentration of molecular break light), the “Fluorescence maximum intensity upon complete cleavage, relative to that observed with DNaseI” value is reported as 75%.

B2: CalC: polypeptide conferring calicheamicin resistance, 181 amino acids, SEQ ID. NO. 2 (protein)
chain: MTQEKTAPAAKSTTTKSTAAKKPKPPNYDPFVRHSVTVKADRKTAFKTFLEGFPEWWPNNFRTTKVGAPLGVDKKGGRWYEIDEQGEEHTFGLIRKVDEPDTLVIGWRLNGFGRIDPDNSSEFTVTFVADGQKKTRVDVEHTHFDRMGTKHAKRVRNGMDKGWPTILQSFQDKIDEEGAKK
modifications: Bacteria
For B2, in experiment [2], the “Effect on esperamicin-induced cleavage of DNA” value is recorded as “no effect”. In experiment [2] (3.6 pM break light A, 3.5 nM calicheamicin), the “Excess of CalC giving complete inhibition of calicheamicin-mediated DNA cleavage” value is “roughly 2 fold”. Moreover, in experiment [2] (CalC in a two-fold molar excess of calicheamicin), the “Inhibition of calicheamicin mediated DNA cleavage” value is “completely abolishes”.
